Results as given in patent US5457121A, “Cis-hexahydro-5-(1,2,3,4-tetrahydro-2-naphthalenyl)pyrrolo<3,4-c> pyrroles as inhibitors of serotonin reuptake” (Eli Lilly and Company, priority 1994, dated 1995).

tested on: serotonin reuptake (5HT), rat cerebral cortex synaptosomes; assay: Inhibition of synaptosomal reuptake of 3H-serotonin (3H-5HT) in cortical synaptosomes; assay type: biochemical, rat (male Sprague-Dawley); details: 37° C., 5 min, 50 nM 3H-5HT, read-out: IC50 (nM) 5HT (concentration needed to inhibit the uptake of 3H-5HT by 50%)
Procedure: This general procedure is described in Wong et al., Drug Development Research, 6, 397-403 (1985).
Male Sprague-Dawley rats (110-150 gm) from Harlan Industries (Cumberland, Ind.) were fed Purina Chow ad libitum for at least three days before being used in the study. Rats were killed by decapitation. Whole brains were removed and dissected. Cerebral cortex was homogenized in 9 volumes of a medium containing 0.32 M sucrose and 10 mM glucose. Crude synaptosomal preparations were isolated after differential centrifugation at 1,000 g for 10 min. and 17,000 g for 28 min. The final pellets were suspended in the same medium and kept in ice until use within the same day.
Synaptosomal reuptake of ^3 H-serotonin (^3 H-5-hydroxytryptamine, ^3 H-5HT) was determined as follows: Cortical synaptosomes (equivalent to 1 mg protein) were incubated at 37° C. for 5 min. in 1 mL of Krebs-bicarbonate medium containing also 10 mM glucose, 0.1 mM iproniazide, 1 mM ascorbic acid, 0.17 mM EDTA and 50 nM ^3 H-5HT. The reaction mixture was immediately diluted with 2 mL of ice chilled Krebs-bicarbonate buffer and filtered under vacuum with a cell harvester (Brandel, Gaithersburg, Md.). Filters were rinsed twice with approximately 5 mL ice chilled 0.9% saline and were transferred to a counting vial containing 10 mL of scintillation fluid (PCS, Amersham, Arlington Heights, Ill.). Radioactivity was measured by a liquid scintillation spectrophotometer. Accumulation of ^3 H-5HT at 4° C. represented the background and was subtracted from all samples.

Q: How did the IC50 turn out when COc1cccc2c1CC(N1C[C@H]3CNC[C@H]3C1)CC2 (relative stereo) [Example 7, cis-hexahydro-5-(1,2,3,4-tetrahydro-8-methoxy-2-naphthalenyl)pyrrolo<3,4-c>pyrrole dimaleate] was run?
A: Its IC50 is 30 nM.

Q: How did the IC50 turn out when Cc1cccc2c1CC(N1C[C@H]3CN(C)C[C@H]3C1)CC2 (relative stereo) [Example 9, cis-hexahydro-2-methyl-5-(1,2,3,4-tetrahydro-8-methyl-2-naphthalenyl)pyrrolo<3,4-c>pyrrole dimaleate] was run?
A: Its IC50 is 293 nM.

Q: COc1ccc(Br)c2c1CC(N1C[C@H]3CNC[C@H]3C1)CC2 (relative stereo) [Example 8, cis-hexahydro-5-(1,2,3,4-tetrahydro-5-bromo-8-methoxy-2-naphthalenyl)pyrrolo<3,4-c>pyrrole dimaleate] was tested. Which IC50 did it give?
A: The IC50 was 50 nM.

Q: For CN1C[C@@H]2CN(C3CCc4cccc(O)c4C3)C[C@@H]2C1 (relative stereo) [Example 4, cis-hexahydro-2-methyl-5-(1,2,3,4-tetrahydro-8-hydroxy-2-naphthalenyl)pyrrolo<3,4-c>pyrrole dimaleate], which IC50 is on record?
A: Its IC50 is 5.4 nM.

Q: Which IC50 does the source give for COc1cccc2c1CC(N1C[C@H]3CN(C)C[C@H]3C1)CC2 (relative stereo) [Example 3, cis-hexahydro-2-methyl-5-(1,2,3,4-tetrahydro-8-methoxy-2-naphthalenyl)pyrrolo<3,4-c>pyrrole dimaleate] here?
A: Its IC50 is 20 nM.

Q: For CN1C[C@@H]2CN(C3CCc4ccccc4C3)C[C@@H]2C1 (relative stereo) [Example 1, cis-hexahydro-2-methyl-5-(1,2,3,4-tetrahydro-2-naphthalenyl) pyrrolo<3,4-c>pyrrole dimaleate], which IC50 is on record?
A: Its IC50 is 122 nM.

Q: With COc1cccc2c1[C@@H](C)[C@@H](N1C[C@H]3CNC[C@H]3C1)CC2 (relative stereo) [Example 12, cis-hexahydro-5-(cis-1-methyl-1,2,3,4-tetrahydro-8-methoxy-2-naphthalenyl)pyrrolo<3,4-c>pyrrole dimaleate] as the compound, how does the IC50 read?
A: Its IC50 is 340 nM.

Q: COc1cccc2c1[C@@H](C)[C@@H](N1C[C@H]3CN(C)C[C@H]3C1)CC2 (relative stereo) [Example 11, cis-hexahydro-2-methyl-5-(cis-1-methyl-1,2,3,4-tetrahydro-8-methoxy-2-naphthalenyl)pyrrolo<3,4-c>pyrrole dimaleate] was tested. Which IC50 did it give?
A: The IC50 was 65 nM.

Q: How did the IC50 turn out when Cc1ccc(Br)c2c1CC(N1C[C@H]3CN(C)C[C@H]3C1)CC2 (relative stereo) [Example 10, cis-hexahydro-2-methyl-5-(1,2,3,4-tetrahydro-5-bromo-8-methyl-2-naphthalenyl)pyrrolo<3,4-c>pyrrole dimaleate] was run?
A: The IC50 was 413 nM.

Q: Which IC50 does the source give for CN1C[C@@H]2CN(C3CCc4cccc(Cl)c4C3)C[C@@H]2C1 (relative stereo) [Example 2, cis-hexahydro-2-methyl-5-(1,2,3,4-tetrahydro-8-chloro-2-naphthalenyl)pyrrolo<3,4-c>pyrrole dimaleate] here?
A: Its IC50 is 42 nM.

Q: Which IC50 does the source give for COc1cccc2c1CC(N1C[C@H]3CN(Cc4ccccc4)C[C@H]3C1)CC2 (relative stereo) [Example 6, cis-hexahydro-2-benzyl-5-(1,2,3,4-tetrahydro-8-methoxy-2-naphthalenyl)pyrrolo<3,4-c>pyrrole dimaleate] here?
A: Its IC50 is 60 nM.

Q: For COc1ccc(Br)c2c1CC(N1C[C@H]3CN(C)C[C@H]3C1)CC2 (relative stereo) [Example 5, cis-hexahydro-2-methyl-5-(1,2,3,4-tetrahydro-5-bromo-8-methoxy-2-naphthalenyl)pyrrolo<3,4-c>pyrrole dimaleate], which IC50 is on record?
A: The IC50 was 38 nM.
